According to publication PMC10907298 (Nature chemical biology, 2023):
Several values for one entry are separate records, joined by “and”; a condition that tells them apart may be missing. Equal entries are not always repeated.

Legend:
[1] = target: human STING S27V (Homo sapiens, UniProt Q86WV6, S27V); experiment: ISRE reporter assay with STING co-transfection in HEK293T cells
[2] = test system: BMDM, human STING knock-in; experiment: IP10 induction in bone marrow-derived macrophages; type: cell-based, mouse; details: 50μM, n=1
[3] = target: human STING L134A (Homo sapiens, UniProt Q86WV6, L134A); experiment: ISRE reporter assay with STING co-transfection in HEK293T cells
[4] = target: human STING (WT) (Homo sapiens, UniProt Q86WV6); experiment: as above; type: cell-based
[5] = target: wild-type hSTING-GFP (Homo sapiens, UniProt Q86WV6); experiment: STING translocation/aggregate (puncta) assay in HEK293T cells; type: cell-based; details: 50 μM, overnight
[6] = target: hSTING(1–153)–mSTING(153–378) chimera (Homo sapiens, UniProt Q86WV6, A215V/A300E/A302V/A313V/A318T/A350V/D237N/D297E/D320G/E174G/E362R/E369D/G230I/G344N/H185L/H232R/I244V/K224M/K347M/K370Q/L189M/L202F/L222R/L247I/L333I/L346P/M214V/M357L/Q196R/Q276K/Q306R/R191S/R253P/S275A/S321N/S345A/S353P/T181M/T229N/T256V/T354P/T356V/V194G/V258I/V343M/V351A/Y182F/Y186H/Y274D); experiment: ISRE reporter assay with STING co-transfection in HEK293T cells; type: cell-based, human/mouse; details: for ISRE reporter activity, mean: h(1-153)/m(153-378)STING
[7] = test system: MC38 tumors; experiment: MC38 flank tumor model in human STING knock-in mice; type: in vivo, mouse; details: for Tumor Volume: 800ug intratumorally days 11, 14, 18, individual animals, listed as MGL844
[8] = test system: BMDM, WT mSTING; experiment: IP10 induction in bone marrow-derived macrophages; type: cell-based, mouse; details: 50μM, n=1
[9] = target: hSTING(R95A)-GFP (Homo sapiens, UniProt Q86WV6, R95A); experiment: STING translocation/aggregate (puncta) assay in HEK293T cells; type: cell-based; details: 50 μM, overnight
[10] = target: purified human STING R95A (Homo sapiens, UniProt Q86WV6, R95A); experiment: native gel analysis of STING oligomerization; details: R95A mutant
[11] = target: T1, mSTING C95R (Mus musculus, UniProt Q3TBT3, C95R); experiment: ISRE reporter assay with STING co-transfection in HEK293T cells
T1 sequence (Q3TBT3 1-378 C95R): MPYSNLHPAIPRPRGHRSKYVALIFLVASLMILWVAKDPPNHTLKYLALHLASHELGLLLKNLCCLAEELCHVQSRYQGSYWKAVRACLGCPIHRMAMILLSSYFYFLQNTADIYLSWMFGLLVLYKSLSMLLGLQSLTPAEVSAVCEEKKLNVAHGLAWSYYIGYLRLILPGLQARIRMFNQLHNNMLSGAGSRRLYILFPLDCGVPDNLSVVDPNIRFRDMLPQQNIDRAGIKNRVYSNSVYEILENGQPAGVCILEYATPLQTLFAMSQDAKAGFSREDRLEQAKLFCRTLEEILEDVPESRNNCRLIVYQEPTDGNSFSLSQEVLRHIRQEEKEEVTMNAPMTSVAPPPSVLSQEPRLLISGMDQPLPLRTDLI

[12] = target: human STING V31M (Homo sapiens, UniProt Q86WV6, V31M); experiment: as above
[13] = test system: anti-SIY tumor T cell response; experiment: IFN-γ ELISPOT of PBMC stimulated with SIY peptide; type: in vivo, mouse; details: for IFN-γ Spots/2x105 PBMC: 6 days post treatment, SIY peptide, individual animals
[14] = intratumoral, days 11, 14 and 18

Sequence of human STING V31M (Q86WV6 whole entry V31M): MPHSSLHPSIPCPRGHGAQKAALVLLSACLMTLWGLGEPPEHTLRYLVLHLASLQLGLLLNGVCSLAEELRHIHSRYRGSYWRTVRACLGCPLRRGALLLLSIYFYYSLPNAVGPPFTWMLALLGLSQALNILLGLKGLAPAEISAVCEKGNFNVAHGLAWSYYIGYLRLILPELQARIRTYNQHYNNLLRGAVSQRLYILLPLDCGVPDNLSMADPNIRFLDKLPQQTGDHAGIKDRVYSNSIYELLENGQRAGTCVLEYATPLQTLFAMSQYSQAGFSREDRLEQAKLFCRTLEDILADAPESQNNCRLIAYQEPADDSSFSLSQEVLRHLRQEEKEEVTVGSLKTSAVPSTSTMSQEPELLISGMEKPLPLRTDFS
Sequence of human STING S27V (Q86WV6 whole entry S27V): as the sequence (Q86WV6 whole entry V31M) above, with S27V, M31V counted along it
Sequence of human STING (WT) (Q86WV6 whole entry): as the sequence (Q86WV6 whole entry V31M) above, with M31V counted along it
Sequence of hSTING(1–153)–mSTING(153–378) chimera (Q86WV6 with tags, fused parts or gaps with the stated changes): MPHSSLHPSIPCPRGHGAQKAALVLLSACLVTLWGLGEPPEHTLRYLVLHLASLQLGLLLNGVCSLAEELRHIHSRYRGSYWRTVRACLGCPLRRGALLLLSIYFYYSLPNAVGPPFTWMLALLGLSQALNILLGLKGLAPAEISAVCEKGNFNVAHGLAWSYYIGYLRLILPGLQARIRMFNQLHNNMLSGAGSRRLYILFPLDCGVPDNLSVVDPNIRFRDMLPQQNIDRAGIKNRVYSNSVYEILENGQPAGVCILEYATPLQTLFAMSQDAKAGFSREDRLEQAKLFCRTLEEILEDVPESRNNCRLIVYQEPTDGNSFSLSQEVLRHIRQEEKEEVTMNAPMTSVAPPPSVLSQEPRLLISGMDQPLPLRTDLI
Sequence of human STING L134A (Q86WV6 whole entry L134A): as the sequence (Q86WV6 whole entry V31M) above, with M31V, L134A counted along it
Sequence of purified human STING R95A (Q86WV6 1-343 R95A): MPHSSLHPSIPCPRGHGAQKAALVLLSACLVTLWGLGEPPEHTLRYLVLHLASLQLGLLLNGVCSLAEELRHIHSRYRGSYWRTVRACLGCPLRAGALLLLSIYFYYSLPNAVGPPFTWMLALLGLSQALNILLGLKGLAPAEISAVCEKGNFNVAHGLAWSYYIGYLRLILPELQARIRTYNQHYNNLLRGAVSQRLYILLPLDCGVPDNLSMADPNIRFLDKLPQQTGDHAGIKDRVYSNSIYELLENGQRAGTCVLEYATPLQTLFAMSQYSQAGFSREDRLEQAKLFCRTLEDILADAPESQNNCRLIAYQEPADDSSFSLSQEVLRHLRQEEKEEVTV
Sequence of wild-type hSTING-GFP (Q86WV6 whole entry): as the sequence (Q86WV6 whole entry V31M) above, with M31V counted along it
Sequence of hSTING(R95A)-GFP (Q86WV6 whole entry R95A): as the sequence (Q86WV6 whole entry V31M) above, with M31V, R95A counted along it

COc1cc(C(=O)O)ccc1NCc1ccc(C2(C(C)(C)C)OCC(C)(C)CO2)cc1 [NVS-STG2]
ISRE reporter activity, mean ([1]; Log[μM] 0.2): 28.6 | ISRE reporter activity, mean ([1]; Log[μM] 0.5): 35.2 | ISRE reporter activity, mean ([1]; Log[μM] 0.8): 40.6 | ISRE reporter activity, mean ([1]; Log[μM] 1.1): 46.1 | ISRE reporter activity, mean ([1]; Log[μM] 1.4): 46.2 | ISRE reporter activity, mean ([1]; Log[μM] -0.1): 22.7 | ISRE reporter activity, mean ([1]; Log[μM] -0.4): 13.4 | ISRE reporter activity, mean ([1]; Log[μM] -0.7): 7.4 | ISRE reporter activity, mean ([1]; Log[μM] -1): 3.8 | ISRE reporter activity, mean ([1]; Log[μM] -1.3): 1.4 | IP10 ([2]; BMDM hSTING+/+): 5284 pg/mL | IP10 ([2]; BMDM hSTING+/indel): 1541.25 pg/mL | STING activation in words [3]: various degrees of reduction | ISRE reporter activity, mean ([3]; Log[μM] 0.3, Figure 3c): 5.454 | ISRE reporter activity, mean ([3]; Log[μM] 1, Figure 3c): 26.4486 | ISRE reporter activity, mean ([3]; Log[μM] -0.4, Figure 3c): 2.468 | ISRE reporter activity, mean ([3]; Log[μM] -1.1, Figure 3c): -1.106 | ISRE reporter activity, mean ([3]; Log[μM] -1.8, Figure 3c): 1.759 | ISRE reporter activity, mean ([3]; Log[μM] -2.49, Figure 3c): 2.73 | ISRE reporter activity, mean ([3]; Log[μM] -3.19, Figure 3c): 5.607 | ISRE reporter activity, mean ([4]; STING WT, Log[μM] 1.22185, Figure S1c and d): 17.6344 | ISRE reporter activity, mean ([4]; STING WT, Log[μM] 1.69897, Figure S1c and d): 5.278 | ISRE reporter activity, mean ([4]; WT, Log[μM] 0.3, Figure 3c): 91.1301 | ISRE reporter activity, mean ([4]; WT, Log[μM] 1, Figure 3c): 89.4692 | ISRE reporter activity, mean ([4]; WT, Log[μM] -0.4, Figure 3c): 17.8606 | ISRE reporter activity, mean ([4]; WT, Log[μM] -1.1, Figure 3c): 10.1153 | ISRE reporter activity, mean ([4]; WT, Log[μM] -1.8, Figure 3c): -0.2753 | ISRE reporter activity, mean ([4]; WT, Log[μM] -2.49, Figure 3c): -1.7095 | ISRE reporter activity, mean ([4]; WT, Log[μM] -3.19, Figure 3c): -1.3729 | ISRE reporter activity, mean ([4]; hSTING WT, Log[μM] 0.2): 21.1 and 30.1 | ISRE reporter activity, mean ([4]; hSTING WT, Log[μM] 0.5): 33.4 and 42.4 | ISRE reporter activity, mean ([4]; hSTING WT, Log[μM] 0.8): 39.5 and 52.4 | ISRE reporter activity, mean ([4]; hSTING WT, Log[μM] 1.1): 50.3 and 59.2 | ISRE reporter activity, mean ([4]; hSTING WT, Log[μM] 1.4): 53.6 and 53.1 | ISRE reporter activity, mean ([4]; hSTING WT, Log[μM] -1.3): 1.2 and 1.5 | STING activation in words ([4]; human STING): specifically activated human STING | puncta-like structure formation in words [5]: only the wild-type was responsive | ISRE reporter activity, mean ([6]; Log[μM] 0.2): 5.4 | ISRE reporter activity, mean ([6]; Log[μM] 0.5): 12 | ISRE reporter activity, mean ([6]; Log[μM] 0.8): 17.4 | ISRE reporter activity, mean ([6]; Log[μM] 1.1): 24.2 | ISRE reporter activity, mean ([6]; Log[μM] 1.4): 26.3 | ISRE reporter activity, mean ([6]; Log[μM] -0.1): 2.6 | ISRE reporter activity, mean ([6]; Log[μM] -0.4): 1.4 | ISRE reporter activity, mean ([6]; Log[μM] -0.7): 0.8 | ISRE reporter activity, mean ([6]; Log[μM] -1): 0.7 | ISRE reporter activity, mean ([6]; Log[μM] -1.3): 0.7 | STING activation in words ([6]; hSTING TMD–mSTING LBD chimera): induced significant activation | Tumor Volume ([7]; day 10 post implant (before dosing)): 24.276 mm3 and 31.79 mm3 and 33.2145 mm3 and 35.594 mm3 and 59.168 mm3 and 64.512 mm3 and 74.431 mm3 and 81.466 mm3 and 88.36 mm3 | Tumor Volume ([7]; day 13 post implant): 23.275 mm3 and 45.6 mm3 and 74.925 mm3 and 56.074 mm3 and 80 mm3 and 91.936 mm3 and 95.648 mm3 and 133.28 mm3 and 139.707 mm3 | Tumor Volume ([7]; day 17 post implant): 23.04 mm3 and 36.414 mm3 and 64 mm3 and 34.2225 mm3 and 103.933 mm3 and 63.36 mm3 and 159.359 mm3 and 161.863 mm3 and 433.026 mm3 | Tumor Volume ([7]; day 20 post implant): 22.869 mm3 and 51.2 mm3 and 79.35 mm3 and 50.336 mm3 and 114.92 mm3 and 64.512 mm3 and 236.927 mm3 and 137.641 mm3 and 854.024 mm3 | Tumor Volume ([7]; day 25 post implant): 19.2 mm3 and 213.4 mm3 and 75.5 mm3 and 32 mm3 and 106.3 mm3 and 28.3 mm3 and 491.7 mm3 and 148.2 mm3 | Tumor Volume ([7]; day 28 post implant): 14.4 mm3 and 499.6 mm3 and 105 mm3 and 45.5 mm3 and 173.2 mm3 and 59.7 mm3 and 259.5 mm3 | Tumor Volume ([7]; day 31 post implant): 12.9 mm3 and 87.7 mm3 and 40 mm3 and 257.7 mm3 and 74.1 mm3 and 418.1 mm3 | Tumor Volume ([7]; day 33 post implant): 6.5 mm3 and 126 mm3 and 55.7 mm3 and 399.2 mm3 and 98.3 mm3 and 556.3 mm3 | mice with no tumor growth during the 33-day experimental period [7, 14]: 4 out of 9 | tumor growth in words [7, 14]: slowed tumor growth significantly | IP10 [8]: 143 pg/mL | puncta-like structure formation in words [9]: lost the ability to form puncta-like structures | induction of STING oligomerization in words [10]: notable defect in higher-order oligomer formation | STING activation in words [11]: unable to restore the activity | ISRE reporter activity, mean ([11]; Log[μM] 0.3, Figure S1g): -9.8647 | ISRE reporter activity, mean ([11]; Log[μM] 1, Figure S1g): -24.0951 | ISRE reporter activity, mean ([11]; Log[μM] 1.7, Figure S1g): -51.7859 | ISRE reporter activity, mean ([11]; Log[μM] -0.4, Figure S1g): -3.941 | ISRE reporter activity, mean ([11]; Log[μM] -1.1, Figure S1g): -6.421 | ISRE reporter activity, mean ([11]; Log[μM] -1.8, Figure S1g): -3.26 | ISRE reporter activity, mean ([12]; Log[μM] 0.2): 31.8 | ISRE reporter activity, mean ([12]; Log[μM] 0.5): 43.5 | ISRE reporter activity, mean ([12]; Log[μM] 0.8): 50.7 | ISRE reporter activity, mean ([12]; Log[μM] 1.1): 52.8 | ISRE reporter activity, mean ([12]; Log[μM] 1.4): 50.8 | ISRE reporter activity, mean ([12]; Log[μM] -0.1): 25.4 | ISRE reporter activity, mean ([12]; Log[μM] -0.4): 17.4 | ISRE reporter activity, mean ([12]; Log[μM] -0.7): 10.4 | ISRE reporter activity, mean ([12]; Log[μM] -1): 5.7 | ISRE reporter activity, mean ([12]; Log[μM] -1.3): 2.2 | IFN-γ Spots/2x105 PBMC ([13]; 400μg intratumorally): 141.667 Spots/2x105 PBMC and 96.3333 Spots/2x105 PBMC and 50 Spots/2x105 PBMC and 252 Spots/2x105 PBMC and 47 Spots/2x105 PBMC and 48 Spots/2x105 PBMC and 38.6667 Spots/2x105 PBMC and 77.3333 Spots/2x105 PBMC and 194.333 Spots/2x105 PBMC | IFN-γ Spots/2x105 PBMC ([13]; 800μg intratumorally): 144 Spots/2x105 PBMC and 181.5 Spots/2x105 PBMC and 154.667 Spots/2x105 PBMC and 138.333 Spots/2x105 PBMC and 210 Spots/2x105 PBMC and 286.333 Spots/2x105 PBMC and 79.5 Spots/2x105 PBMC and 96.3333 Spots/2x105 PBMC | T-cell priming response in words ([13]; B16-SIY, hSTING KI mice): dose dependent and significant induction of T-cell priming response
